# Assay: in vitro
# Settings: human, hela cells, % viability
smiles,measurement,value
O=C(CSc1nnc(-c2ccncc2)n1-c1ccccc1)Nc1ccnc2ccccc12 [CBK267900],"viability at 28.5 h, 10 µM",101%
O=C(CNC(=O)C1CCCCC1)NNC(=O)c1sc2ccccc2c1Cl [CBK267903],"viability at 28.5 h, 10 µM",98.8%
COc1ccc(NC(=O)CSc2nc(N)cc(O)n2)c([N+](=O)[O-])c1 [CBK267904],"viability at 28.5 h, 10 µM",101%
O=C(O)CCCC(=O)Nc1cc(C(=O)O)ccc1Cl [CBK267907],"viability at 28.5 h, 10 µM",116%
CCN(CC(=O)Nc1ccc(OC)c(Cl)c1)S(=O)(=O)c1ccc2ccccc2c1 [CBK267910],"viability at 28.5 h, 10 µM",92.9%
CC(C)c1nnc(SCc2ccc(CSc3nnc(C(C)C)n3N)cc2)n1N [CBK267911],"viability at 28.5 h, 10 µM",101%
CCN1CCN(C(=O)CN(CC)S(=O)(=O)c2ccc3ccccc3c2)CC1 [CBK267913],"viability at 28.5 h, 10 µM",101%
Cc1ccc(CNC(=O)CSc2nc(N)n[nH]2)cc1 [CBK267914],"viability at 28.5 h, 10 µM",103%
NS(=O)(=O)c1ccc(NC(=O)c2ccc(COc3ccccc3)o2)cc1 [CBK267915],"viability at 28.5 h, 10 µM",104%
COc1ccc(S(=O)(=O)N(C)CC(=O)Nc2ccc(Br)cc2F)cc1Cl [CBK267916],"viability at 28.5 h, 10 µM",81.3%
Cc1cc(C(=O)O)ccc1NC(=O)CCCC(=O)O [CBK267917],"viability at 28.5 h, 10 µM",90.8%
CCn1cc(C(=O)O)c(=O)c2cc(F)c(N3CCN(C(=S)Nc4ccc(F)c(Cl)c4)CC3)cc21 [CBK267921],"viability at 28.5 h, 10 µM",97.5%
CCOc1cc(/C=C(/C#N)c2nc3ccccc3[nH]2)ccc1OCc1ccc(C(=O)O)o1 [CBK267923],"viability at 28.5 h, 10 µM",88.9%
CCOc1ccc(N(Cc2cc3cc(C)ccc3nc2O)S(=O)(=O)c2ccccc2)cc1 [CBK267924],"viability at 28.5 h, 10 µM",120%
Nc1cc(O)nc(SCC(=O)N2CCN(c3ccccc3)CC2)n1 [CBK267925],"viability at 28.5 h, 10 µM",86%
O=C(O)Cn1nnc(-c2ccc(C(=O)O)cc2)n1 [CBK267926],"viability at 28.5 h, 10 µM",85%
N#C/C(=C\c1ccc(N2CCN(c3ccc(F)cc3)CC2)c([N+](=O)[O-])c1)c1nn(-c2ccccc2)c(N)c1C#N [CBK267927],"viability at 28.5 h, 10 µM",95.7%
CCn1cc(C(=O)O)c(=O)c2cnc(N3CCN(C(=S)Nc4cc5oc6ccccc6c5cc4OC)CC3)nc21 [CBK267929],"viability at 28.5 h, 10 µM",101%
CCn1cc(C(=O)O)c(=O)c2cnc(N3CCN(C(=S)Nc4ccc5c(c4)OCO5)CC3)nc21 [CBK267930],"viability at 28.5 h, 10 µM",90.6%
CC(=O)Nc1ccc(S(=O)(=O)NC2(C(F)(F)F)N=C(c3ccccc3)NC2=O)cc1 (stereo not drawn) [CBK267932],"viability at 28.5 h, 10 µM",113%
CCc1cccc(C)c1NC(=O)CN(c1ccc(Br)c(C)c1)S(C)(=O)=O [CBK267935],"viability at 28.5 h, 10 µM",102%
O=C(CSc1ccc(Cl)cc1)Nc1cccc2nsnc12 [CBK267936],"viability at 28.5 h, 10 µM",90.8%
COc1ccccc1C(=O)Nc1ccccc1N1CCN(C)CC1 [CBK267938],"viability at 28.5 h, 10 µM",91.8%
O=C(NCCOCc1ccc(Cl)cc1)c1cc(-n2cnnc2)ccc1Cl [CBK267939],"viability at 28.5 h, 10 µM",101%
COC(=O)c1ccsc1NC(=O)CN1CCN(Cc2ccc3c(c2)OCO3)CC1 [CBK267940],"viability at 28.5 h, 10 µM",97.6%
COCCCn1c(CCC(=O)O)ccc1-c1cccs1 [CBK267942],"viability at 28.5 h, 10 µM",121%
CCCc1oc(C(=O)O)cc1CN(CC)CC [CBK267943C],"viability at 28.5 h, 10 µM",92.1%
O=C1CC(C(=O)O)SC(NNC(=O)c2ccccc2)=N1 (stereo not drawn) [CBK267944],"viability at 28.5 h, 10 µM",91.2%
CC(C(=O)O)N(c1ccc(Cl)cc1)S(C)(=O)=O (stereo not drawn) [CBK267945],"viability at 28.5 h, 10 µM",111%
O=C(CS(=O)(=O)c1ccccc1)Nc1cccc2nsnc12 [CBK267949],"viability at 28.5 h, 10 µM",97.4%
O=C(O)C1CCCCC1C(=O)Nc1ccc(S(=O)(=O)N2CCCCC2)cc1 (stereo not drawn) [CBK267950],"viability at 28.5 h, 10 µM",109%
O=c1c2ccccc2[nH]c(=S)n1CCCN1CCC(Cc2ccccc2)CC1 [CBK267952],"viability at 28.5 h, 10 µM",86.2%
OC(Cn1ccc2ccccc21)Cn1c(Cc2ccccc2)nc2ccccc21 (stereo not drawn) [CBK267954],"viability at 28.5 h, 10 µM",97.7%
CN(C)S(=O)(=O)N(CC(=O)Nc1cccnc1)c1ccccc1 [CBK267958],"viability at 28.5 h, 10 µM",119%
O=C(NCCCN1CCCC1)Nc1ccccc1[N+](=O)[O-] [CBK267959],"viability at 28.5 h, 10 µM",97%
Nc1nonc1-c1nc2ccccc2n1Cc1cc2c(cc1Br)OCO2 [CBK267961],"viability at 28.5 h, 10 µM",105%
CCOc1ccc(CNc2ccc(S(N)(=O)=O)cc2)cc1 [CBK267962],"viability at 28.5 h, 10 µM",89.3%
c1ccc2oc(NC3=NCN(Cc4ccc5c(c4)OCO5)CN3)nc2c1 [CBK267964],"viability at 28.5 h, 10 µM",95.1%
N#Cc1ccccc1CSc1nc(N)cc(O)n1 [CBK267967],"viability at 28.5 h, 10 µM",98.3%
N#Cc1c(NC(=O)CN2CCN(Cc3ccccc3)CC2)sc2c1CCCC2 [CBK267969],"viability at 28.5 h, 10 µM",99.6%
O=C(CN1CCCCC1)Nc1sc2c(c1C(=O)Nc1ccccc1)CCCC2 [CBK267974],"viability at 28.5 h, 10 µM",104%
S=C(Nc1ccccc1)N(CCN1CCOCC1)Cc1cccc(Cl)c1 [CBK267975],"viability at 28.5 h, 10 µM",103%
COc1cc(/C=C/c2[nH]c(=O)[nH]c(=O)c2[N+](=O)[O-])cc(Br)c1OCC(=O)O [CBK267977],"viability at 28.5 h, 10 µM",91.5%
Cc1cc(OCCCC(=O)Nc2cccc([N+](=O)[O-])c2)cc(C)c1Cl [CBK267978],"viability at 28.5 h, 10 µM",97.8%
CC(Oc1ccc(-c2ccccc2)cc1)C(=O)Nc1ccc(S(N)(=O)=O)cc1 (stereo not drawn) [CBK267979],"viability at 28.5 h, 10 µM",87.2%
CCn1c(SCC(=O)Nc2cccc([N+](=O)[O-])c2)nnc1-c1cc(Br)ccc1O [CBK267980],"viability at 28.5 h, 10 µM",86%
Cc1ccc([N+](=O)[O-])cc1NC(=O)CN(Cc1ccc(Cl)cc1)S(C)(=O)=O [CBK267981],"viability at 28.5 h, 10 µM",87.8%
CS(=O)(=O)N(CC(=O)NCc1ccccn1)Cc1ccc(Cl)cc1 [CBK267982],"viability at 28.5 h, 10 µM",94.6%
NC(=O)c1ccccc1NC(=O)CSc1nc(N)cc(N)n1 [CBK267983],"viability at 28.5 h, 10 µM",115%
CCCc1oc(C(=O)O)cc1CN1CCOCC1 [CBK267984C],"viability at 28.5 h, 10 µM",106%
COc1ccc(S(=O)(=O)N2CCC(C(=O)Nc3cccc(F)c3)CC2)cc1C [CBK267987],"viability at 28.5 h, 10 µM",92%
COc1ccccc1Oc1nnnn1-c1ccc(C(N)=O)cc1 [CBK267988],"viability at 28.5 h, 10 µM",96%
CC(=O)N1CCN(Cc2nc3cc(NC(=O)Cn4nc(C)c5ccccc5c4=O)ccc3n2C)CC1 [CBK267989],"viability at 28.5 h, 10 µM",87.8%
COc1ccc(C)cc1S(=O)(=O)N(CC(=O)Nc1ccccc1C)c1ccc(Cl)cc1 [CBK267995],"viability at 28.5 h, 10 µM",90.1%
COc1cc(OC)cc(C(=O)OCc2ccc(F)cc2)c1 [CBK267996],"viability at 28.5 h, 10 µM",95.6%
O=C(CC1C(=O)NCCN1C(=S)Nc1ccccc1)Nc1ccc2c(c1)OCCO2 (stereo not drawn) [CBK267999],"viability at 28.5 h, 10 µM",95.9%
CCC(NC(=O)Nc1ccccc1C(=O)O)(C(F)(F)F)C(F)(F)F [CBK268000],"viability at 28.5 h, 10 µM",93.2%
COc1ccc(C(=O)Nc2ccccc2N2CCN(C)CC2)cc1Cl [CBK268001],"viability at 28.5 h, 10 µM",90.5%
CC(Oc1ccc(-c2ccccc2)cc1)C(=O)Nc1ccc2c(c1)OCCO2 (stereo not drawn) [CBK268002],"viability at 28.5 h, 10 µM",92.3%
Cc1cc(SCC(=O)Nc2cccc3ccccc23)nc2c(C)cccc12 [CBK268005],"viability at 28.5 h, 10 µM",92.2%
O=C(CSc1nnc(-c2ccco2)o1)Nc1cccc2nsnc12 [CBK268006],"viability at 28.5 h, 10 µM",93.2%
O=C(O)C1CCCCC1C(=O)Nc1ccc(S(=O)(=O)N2CCOCC2)cc1 (stereo not drawn) [CBK268010],"viability at 28.5 h, 10 µM",104%
COCCCn1c(CCC(=O)O)ccc1-c1ccc(Br)cc1 [CBK268015],"viability at 28.5 h, 10 µM",97.6%
Cc1cc(C)nc(Nc2n[nH]c(COc3ccccc3)n2)n1 [CBK268016],"viability at 28.5 h, 10 µM",93.2%
O=C(Nc1ccc(S(=O)(=O)N2CCCCCC2)cc1)c1ccc(NS(=O)(=O)c2ccccc2)cc1 [CBK268018],"viability at 28.5 h, 10 µM",90.4%
CC(NC(=O)Nc1ccccc1O)(C(F)(F)F)C(F)(F)F [CBK268019],"viability at 28.5 h, 10 µM",101%
O=C(O)c1ccccc1-c1nc(-c2ccccc2F)no1 [CBK268022],"viability at 28.5 h, 10 µM",100%
CC(Oc1cccc(Br)c1)C(=O)NCCC(=O)O (stereo not drawn) [CBK268024],"viability at 28.5 h, 10 µM",90.9%
O=C(Cn1nnc(-c2ccc3c(c2)OCO3)n1)Nc1ccccc1C(=O)O [CBK268025],"viability at 28.5 h, 10 µM",101%
O=C(O)c1cccc(NC(=O)c2cc(-n3cnnc3)ccc2Cl)c1 [CBK268026],"viability at 28.5 h, 10 µM",83%
CCn1cc(C(=O)O)c(=O)c2cc(F)c(N3CCN(C(=S)Nc4ccc5c(c4)OCO5)CC3)cc21 [CBK268027],"viability at 28.5 h, 10 µM",83.1%
CC(CNC(=O)C1CCCCC1C(=O)O)c1ccccc1 (stereo not drawn) [CBK268028],"viability at 28.5 h, 10 µM",97.1%
O=C(O)c1cccc(CSc2nnc(Cc3ccccc3)[nH]2)c1 [CBK268029],"viability at 28.5 h, 10 µM",94.1%
CCNC(=O)N1C(CC(=O)OCC)C(=O)NC2CCCCC21 (stereo not drawn) [CBK268030],"viability at 28.5 h, 10 µM",116%
CC(=O)Nc1ccc(C(=O)CSc2nc(-c3ccccc3)cs2)cc1 [CBK268038],"viability at 28.5 h, 10 µM",101%
Cc1nnc(Nc2ccc3c(c2)nc2n3CCN(C3CCCCC3)C2)c2ccccc12 [CBK268042],"viability at 28.5 h, 10 µM",90.9%
Cc1nnc(SCC(=O)NCCc2ccccc2)nc1O [CBK268045],"viability at 28.5 h, 10 µM",92%
Cc1cc(NC(=O)C(=O)NCCCN2CCOCC2)ccc1Br [CBK268046],"viability at 28.5 h, 10 µM",94.7%
CCOc1cc(C)c(Cl)cc1S(=O)(=O)NCc1ccccn1 [CBK268047],"viability at 28.5 h, 10 µM",108%
Cc1ccc(Cl)cc1N=C(N)N=C(N)N [CBK268049],"viability at 28.5 h, 10 µM",98.8%
Cc1cc(=O)oc2cc(OC(C)C(=O)Nc3sc4c(c3C(N)=O)CCCC4)ccc12 (stereo not drawn) [CBK268050],"viability at 28.5 h, 10 µM",94.6%
O=c1[nH]c(/C=C/c2cc(Br)ccc2OCc2cccc3ccccc23)c([N+](=O)[O-])c(=O)[nH]1 [CBK268052],"viability at 28.5 h, 10 µM",86.3%
N#Cc1c(NC(=O)Cn2cnc3sc(-c4ccccc4)cc3c2=O)sc2c1CCC2 [CBK268053],"viability at 28.5 h, 10 µM",95.2%
Cc1ccc(C(=O)Nc2ccc(S(=O)(=O)N3CCCC3)cc2)cc1S(=O)(=O)Nc1ccccc1 [CBK268054],"viability at 28.5 h, 10 µM",47.4%
O=C(O)c1ccc(-c2ccc(/C=C/c3[nH]c(=O)[nH]c(=O)c3[N+](=O)[O-])o2)cc1 [CBK268055],"viability at 28.5 h, 10 µM",105%
Cc1[nH]c2ccccc2c1C(=O)CSc1n[nH]c(N)n1 [CBK268056],"viability at 28.5 h, 10 µM",98.3%
O=C(CN1CCCC1=O)NC1(C(F)(F)F)NC(=O)N(c2ccc(F)cc2)C1=O (stereo not drawn) [CBK268057],"viability at 28.5 h, 10 µM",98.1%

# — publication PMC12040169 (PLOS Biology, 2025)
